US4910213A, “Antimycotic agents” (Bayer Aktiengesellschaft, priority 1984, dated 1990)
Values after ≈ are worked out from the molar mass of the structure shown.

What was measured:
candida cells = assay: In vivo antimycotic activity (oral) on candidosis of the mouse; design: species or system mouse (SPF-CF1) infected with candida; conditions: 10-100 mg/kg; for Action (class of survival on day 6 after infection): 1 hour before and 7 hours after infection; for surviving on day 6 after infection: good or very good actions, untreated controls about 5%
Description: Type SPF-CF1 mice were infected intravenously with 1-2×10^6 logarithmically growing candida cells which are suspended in physiological saline solution. The animals are each treated orally with 10-100 mg/kg of body weight of the products 1 hour before and 7 hours after the infection. Untreated animals died on days 3 to 6 after the infection. The survival rate on day 6 after the infection was about 5% for untreated control animals.

Aspergillus fumigatus = assay: In vitro antimycotic activity, serial dilution test (MIC); type: cell-based; conditions: 28° to 37° C., 96 hours
Description: (§1) The in vitro tests were carried out in a serial dilution test using inocula of organisms with an average of 5×10^3 to 10^4 organisms/ml of substrate. The following nutrient medium were used
(§2) (a) for dermatophytes and mold fungi: Sabourand's milieu d'epreuve
(§3) The incubation temperature was 28° to 37° C., and the incubation time was 24 to 96 hours for yeasts and 96 hours for dermatophytes and mold fungi.

Microsporum canis = assay: as above; type: cell-based; conditions: 28° to 37° C., 96 hours
Description: as §1, §2, §3

Trichophyton mentagr. = assay: as above; type: cell-based, Trichophyton mentagrophytes; conditions: 28° to 37° C., 96 hours
Description: as §1, §2, §3

Candida albicans = assay: as above; type: cell-based; conditions: 28° to 37° C., 24 to 96 hours
Description: (§4) The in vitro tests were carried out in a serial dilution test using inocula of organisms with an average of 5×10^3 to 10^4 organisms/ml of substrate. The following nutrient medium were used (b) for yeasts: meat extract/glucose broth. The incubation temperature was 28° to 37° C., and the incubation time was 24 to 96 hours for yeasts and 96 hours for dermatophytes and mold fungi.

Torulopsis glabrata = assay: as above; type: cell-based; conditions: Nakaseomyces glabratus, 28° to 37° C., 24 to 96 hours
Description: as §4

[1] = test system: dermatophytes, mold fungi and yeasts; assay: In vitro antimycotic activity, overall comparison with known compounds; type: cell-based; conditions: in vitro serial dilution test
Description: as §4, with “used (a) for dermatophytes and mold fungi: Sabourand's milieu d'epreuve” for “used”

| Compound | Action (class of survival on day 6 after infection) (candida cells) | surviving on day 6 after infection (candida cells) | MIC (Aspergillus fumigatus) | MIC (Microsporum canis) | MIC (Trichophyton mentagr.) | MIC (Candida albicans) | MIC (Torulopsis glabrata) | antimycotic action compared with compounds (A), (B) and (C) [1] |
| --- | --- | --- | --- | --- | --- | --- | --- | --- |
| OC(Cn1cncn1)(c1ccc(F)cc1)C1(n2cncn2)CC1 (stereo not shown) [Example I-2] | +++++ (very good action = 90% surviving on day 6 after infection) | > 60% |  |  |  |  |  |  |
| OC(Cn1cncn1)(c1ccc(-c2ccccc2)cc1)C1(n2cncn2)CC1 (stereo not shown) [Example I-3] | +++ (action = 60% surviving on day 6 after infection) | > 60% | 8 µg/mL (≈ 21.5 µM) | 4 µg/mL (≈ 10.7 µM) | < 1 µg/mL | 2 µg/mL (≈ 5.37 µM) | 8 µg/mL (≈ 21.5 µM) | better antimycotic action than compounds (A), (B) and (C) |
| OC(Cn1cncn1)(c1ccc(Cl)cc1)C1(n2ccnc2)CC1 (stereo not shown) [Example I-10] | +++ (action = 60% surviving on day 6 after infection) | > 60% |  |  |  |  |  |  |
| OC(Cn1cncn1)(Cn1cncn1)c1cccc(Cl)c1 [(A), reference compound] |  |  | > 64 µg/mL |  | 32 µg/mL (≈ 105 µM) |  | > 64 µg/mL |  |
| OC(Cn1cncn1)(Cn1cncn1)c1ccc(Cl)cc1 [(B), reference compound] |  |  | > 64 µg/mL |  | 16 µg/mL (≈ 52.5 µM) | 2 µg/mL (≈ 6.56 µM) | 64 µg/mL (≈ 210 µM) |  |
| OC(Cn1cncn1)(Cn1cncn1)c1ccccc1 [(C), reference compound] |  |  | > 64 µg/mL |  | 64 µg/mL (≈ 237 µM) | 64 µg/mL (≈ 237 µM) | > 64 µg/mL |  |
| OC(Cn1cncn1)(c1ccc(Cl)cc1)C1(n2cncn2)CC1 (stereo not shown) [Example I-1, 1-(4-chlorophenyl)-1-[1-(1,2,4-triazol-1-yl)cyclopropyl]-2-(1,2,4-triazol-1-yl)-1-ethanol] | +++++ (very good action = 90% surviving on day 6 after infection) | > 60% | 32 µg/mL (≈ 96.7 µM) | 32 µg/mL (≈ 96.7 µM) | 2 µg/mL (≈ 6.05 µM) | 8 µg/mL (≈ 24.2 µM) | > 64 µg/mL | better antimycotic action than compounds (A), (B) and (C) |
| OC(Cn1cncn1)(c1ccccc1)C1(n2cncn2)CC1 (stereo not shown) [Example I-6] | +++++ (very good action = 90% surviving on day 6 after infection) | > 60% | 32 µg/mL (≈ 108 µM) | 32 µg/mL (≈ 108 µM) | 4 µg/mL (≈ 13.5 µM) | 8 µg/mL (≈ 27 µM) | > 64 µg/mL | better antimycotic action than compounds (A), (B) and (C) |
| Cc1ccc(C(O)(Cn2cncn2)C2(n3cncn3)CC2)cc1 (stereo not shown) [Example I-5] | ++++ (good action = 80% surviving on day 6 after infection) | > 60% |  |  |  |  |  |  |
| OC(Cn1cncn1)(c1ccc(Br)cc1)C1(n2cncn2)CC1 (stereo not shown) [Example I-7] | ++++ (good action = 80% surviving on day 6 after infection) | > 60% | 64 µg/mL (≈ 171 µM) | 32 µg/mL (≈ 85.3 µM) | < 1 µg/mL | 4 µg/mL (≈ 10.7 µM) | 32 µg/mL (≈ 85.3 µM) | better antimycotic action than compounds (A), (B) and (C) |
